# Experimental data published in patent publication US11938203B2, “Oil-dispersed composition and cosmetics for lip care using the same” (AMOREPACIFIC CORPORATION, priority 2021, dated 2024).
# Assay: Compatibility between water-soluble effective raw materials and oils
# Type: physicochemical
# Text: Compatibility Between Water-Soluble Effective Raw Materials and Oils
# [1] = ester oil and silicone-based oil that do not contain a glyceryl group or an isostearyl group
# [2] = oil: Polyglyceryl-2 Triisostearate
"Compatibility with oil (in words) (diisostearyl malate oil (diester-based oil), FIG. 1)",Compatibility with oil (in words) [1],Compatibility with oil (in words) (hydrocarbon oil-based oil or alcohol-based oil),Compatibility with oil (oil: Diisostearyl Malate),Compatibility with oil (oil: Diphenylsiloxy Phenyl Trimethicone),Compatibility with oil (oil: Isononyl isononanoate),Compatibility with oil (oil: Octyldodecyl neopentanoate),Compatibility with oil [2],"Compatibility with oil (in words) (pentaerythrityl tetraisostearate oil, FIG. 2)",Compound
very good compatibility,excellent compatibility,poor compatibility,◯,◯,◯,◯,◯,very poor compatibility,COc1cc(/C=C/C(=O)Oc2cc(C)ccc2C(C)C)cc(OC)c1OC [Thymol trimethoxy cinnamate]
–,poor compatibility,–,◯,–,–,–,◯,–,Ceramides
